Measured values taken from ChEMBL document CHEMBL1158331, “Insect Antifeedant Isoryanodane Diterpenes from Persea indica” (1997).

Columns and labels:
Spodoptera litura [1] = experiment: Antifeedant activity against Spodoptera litura third instar larvae by choice leaf disk assay; assay type: functional; design: unit not given here
Spodoptera litura [2] = experiment: Antifeedant activity against Spodoptera litura third instar larvae assessed as feeding index at 1000 ppm by choice leaf disk assay; assay type: functional

Structure (SMILES)	logEC50 (Spodoptera litura [1])	Activity (Spodoptera litura [2])
C/C=C(\C)C(=O)O[C@H]1C[C@@H](OC(C)=O)[C@@]2(C(=O)OC)CO[C@H]3[C@@H](O)[C@@](C)([C@]45O[C@@]4(C)[C@@H]4C[C@H]5O[C@@H]5OC=C[C@@]54O)[C@H]4[C@]1(CO[C@]4(O)C(=O)OC)[C@@H]32 [AZADIRACHTIN A]	0.25	
CC(C)[C@@]1(O)C[C@@]2(O)[C@@]3(C)C[C@]4(O)O[C@@]5([C@H](O)[C@@H](C)CC[C@]35O)[C@@]2(O)[C@@]41C [CINNZEYLANOL]	1.93	
CC(C)[C@@H]1C[C@@H]2[C@@]3(O)[C@@H]4O[C@@](O)(C[C@]2(C)[C@]2(O)CC[C@H](C)[C@H]42)[C@]13C [INDICOL]	>3	49.39
CC(C)[C@@]1(O)C[C@@]2(O)[C@]3(C)C[C@]4(O)O[C@H]([C@@]5(O)[C@@H](C)CC[C@]53O)[C@@]2(O)[C@]41C [PERSEANOL]	2.23	11.43
CC(C)[C@@]1(O)[C@@H](OC(=O)c2cc[nH]c2)[C@@]2(O)[C@]3(C)C[C@@]4(O)O[C@@]5([C@H](O)[C@@H](C)CC[C@]35O)[C@@]2(O)[C@@]41C [RYANODINE]	1.15	
CC(C)[C@@]1(O)[C@@H](O)[C@@]2(O)[C@@]3(C)C[C@]4(O)O[C@@]5([C@H](O)[C@@H](C)CC[C@]35O)[C@@]2(O)[C@]14C [RYANODOL]	2.18	
CC(C)[C@@]1(O)C[C@@]2(O)[C@]3(C)C[C@]4(O)O[C@H]([C@H]5[C@@H](C)CC[C@]53O)[C@@]2(O)[C@]41C [VIGNATICOL]	1.97	12.57
